Experimental data taken from EP0533925A1, “OPTICAL ISOMER OF R-FORM OF DIPHENYL ETHER DERIVATIVE AND HERBICIDE CONTAINING THE SAME AS ACTIVE INGREDIENT” (TEIJIN LIMITED, priority 1990, dated 1991).

Assays:
Assay in all cases: Herbicidal activity, foliar application of single compounds (Test Examples 1 to 5)
Format in all cases: in vivo
Parameters in all cases: key: 0 means the state where the plants are as sound as before the application of the active compound; 1, 2, 3 and 4 mean varying degrees of the enfeebled state of the plants between 0 and 5; 1, 2, 3 and 4 mean varying degrees of the enfeebled state of the plants between 0 and 5; 1, 2, 3 and 4 mean varying degrees of the enfeebled state of the plants between 0 and 5; 1, 2, 3 and 4 mean varying degrees of the enfeebled state of the plants between 0 and 5; 5 is the state where the plants are withered or killed by application of the active compound
Conditions in all cases: 3 weeks after application
Solanum nigrum = test system: Solanum nigrum
Abutilon theophrosti = test system: Abutilon theophrosti
Setaria viridis = test system: Setaria viridis
Astragalus sinicus = test system: Astragalus sinicus
Soybean; Glycine max = test system: Soybean; Glycine max
Sorghum halepense = test system: Sorghum halepense
Digitaria adscendens = test system: Digitaria adscendens
Corn; Zea mays = test system: Corn; Zea mays
[1] = Rate of Application 0.016 kg/ha
[2] = Rate of Application 0.031 kg/ha

Q: For `COC(=O)C(C)Oc1cc(Oc2ccc(C(F)(F)F)cc2Cl)ccc1C#N` (stereo not drawn) [Compound (1), Methyl α-[2-cyano-5-(2-chloro-4-trifluoromethylphenoxy)phenoxy]propionate], which “herbicidal activity, Plants h” value (Solanum nigrum; [1]) is on record?
A: 5

Q: And the “herbicidal activity, Plants h” value (Solanum nigrum; [2])?
A: 5

Q: What about the “herbicidal activity, Plants g” value (Abutilon theophrosti; [1]) of the same compound?
A: 5

Q: What about the “herbicidal activity, Plants g” value (Abutilon theophrosti; [2]) of the same compound?
A: 5

Q: And the “herbicidal activity, Plants b” value (Setaria viridis; [1])?
A: 3

Q: And the “herbicidal activity, Plants b” value (Setaria viridis; [2])?
A: 4

Q: And the “herbicidal activity, Plants f” value (Astragalus sinicus; [1])?
A: 5

Q: What about the “herbicidal activity, Plants f” value (Astragalus sinicus; [2]) of the same compound?
A: 5

Q: And the “herbicidal activity, Plants j” value (Soybean; Glycine max; [1])?
A: 4

Q: And the “herbicidal activity, Plants j” value (Soybean; Glycine max; [2])?
A: 4

Q: And the “herbicidal activity, Plants c” value (Sorghum halepense; [1])?
A: 5

Q: And the “herbicidal activity, Plants c” value (Sorghum halepense; [2])?
A: 5

Q: And the “herbicidal activity, Plants a” value (Digitaria adscendens; [1])?
A: 4

Q: And the “herbicidal activity, Plants a” value (Digitaria adscendens; [2])?
A: 4

Q: What about the “herbicidal activity, Plants k” value (Corn; Zea mays; [1]) of the same compound?
A: 5

Q: And the “herbicidal activity, Plants k” value (Corn; Zea mays; [2])?
A: 5
